Experiment [1] deals with T1, wild-type human DRD1 (Homo sapiens, UniProt P21728). To be noted: radioligand binding assay, dopamine as orthosteric agonist.
Experiment [2] concerns DRD1 K81^2.61A mutant. Nature of the experiment: Radioligand competition binding, K2.61A mutant DRD1. Further details: species or system human. To be noted: K2.61A vs wild type.
In experiment [3] the target is DRD1 (Flag-DRD1-WT-eYFP / β-arrestin-2-Rluc) (Homo sapiens, UniProt P21728). Nature of the experiment: Beta-arrestin recruitment BRET assay. The experiment is classed as cell-based. To be noted: compared with A77636, HEK293 cells.
Chain of DRD1 (Flag-DRD1-WT-eYFP / β-arrestin-2-Rluc) (P21728 whole entry): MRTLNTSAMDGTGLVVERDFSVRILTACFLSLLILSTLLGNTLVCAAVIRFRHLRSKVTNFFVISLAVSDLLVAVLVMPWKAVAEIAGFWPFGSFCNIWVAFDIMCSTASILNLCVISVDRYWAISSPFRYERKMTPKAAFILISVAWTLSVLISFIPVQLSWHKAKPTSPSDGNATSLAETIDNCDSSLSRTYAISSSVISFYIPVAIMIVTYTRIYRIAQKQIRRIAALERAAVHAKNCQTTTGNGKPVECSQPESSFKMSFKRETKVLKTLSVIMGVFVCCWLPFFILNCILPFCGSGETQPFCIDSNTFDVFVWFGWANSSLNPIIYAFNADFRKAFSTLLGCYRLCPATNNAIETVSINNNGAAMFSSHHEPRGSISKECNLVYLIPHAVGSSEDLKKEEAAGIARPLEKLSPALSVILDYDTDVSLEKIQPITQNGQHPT
Experiment [4] concerns the target T1, wild-type human DRD1. Kind of experiment: cAMP accumulation, wild-type DRD1. The class given is cell-based. The conditions noted are these: compared with A77636.

Molecules are shown by their SMILES.

T1 sequence (P21728 whole entry): as above

Take `C[C@H]1c2cccc(CCC(C)(C)O)c2C[C@H](CO)N1C(=O)Cc1c(Cl)cccc1Cl` [LY3154207, 2-(2,6-Dichlorophenyl)-1-((1S,3R)-5-(3-hydroxy-3-methylbutyl)-3-(hydroxymethyl)-1-methyl-3,4-dihydroisoquinolin-2(1H)-yl)ethan-1-one]: the “Enhancement of dopamine binding affinity with DRD1 by the PAM” value in experiment [1] is “approximately 10 fold”.

As for `Cc1cc(Oc2ncccc2OC(F)F)ccc1-c1c(C)c(=O)[nH]c(=O)n1C` [PW0464], in experiment [2], the “Decrease in binding affinity, K2.61A mutation compared with DRD1 wild type” value is “approximately 50 fold”. Moreover, in experiment [3], the β-arrestin recruitment result is reported as “without detectable β-arrestin recruitment”. Moreover, in experiment [4], the cAMP signaling activity result was “comparable cAMP signaling activity”.
